# Test results taken from the supplement of paper PMC9663587.
# Tests used:
# Assay in all cases: GRmax, 72 h; higher = less effect;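 further: breast cell lines in 384-well plates, nine doses across a 10^4 range, Dye Drop imaging of viable cells vs DMSO and time-zero plates, GR 0 means no net growth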
# [1] = system: HCC1143
# [2] = system: BT474
# [3] = system: MCF12A
# [4] = system: HCC70
# [5] = system: CAL851
# [6] = system: EVSAT
# [7] = system: HCC38
# [8] = system: 184A1
# [9] = system: MDAMB231
# [10] = system: UACC893
# [11] = system: SKBR3
# [12] = system: HCC1419
# [13] = system: ZR751
smiles,measurement,setting,value
CN(C)CC[C@H](CSc1ccccc1)Nc1ccc(S(=O)(=O)NC(=O)c2ccc(N3CCN(Cc4ccccc4-c4ccc(Cl)cc4)CC3)cc2)cc1[N+](=O)[O-] [ABT-737] (max 10 µM),"GRmax, 72 h",[1],0.376 GR
same,"GRmax, 72 h",[2],0.181 GR
same,"GRmax, 72 h",[3],0.979 GR
same,"GRmax, 72 h",[4],-0.0638 GR
same,"GRmax, 72 h",[5],0.934 GR
same,"GRmax, 72 h",[6],0.697 GR
same,"GRmax, 72 h",[7],-0.421 GR
same,"GRmax, 72 h",[8],-0.0149 GR
same,"GRmax, 72 h",[9],-0.12 GR
same,"GRmax, 72 h",[10],0.49 GR
same,"GRmax, 72 h",[11],0.947 GR
same,"GRmax, 72 h",[12],0.471 GR
same,"GRmax, 72 h",[13],0.886 GR
C=CCn1c(=O)c2cnc(Nc3ccc(N4CCN(C)CC4)cc3)nc2n1-c1cccc(C(C)(C)O)n1 [AZD1775] (max 10 µM),"GRmax, 72 h",[1],-0.458 GR
same,"GRmax, 72 h",[2],-0.398 GR
same,"GRmax, 72 h",[3],-0.21 GR
same,"GRmax, 72 h",[4],-0.75 GR
same,"GRmax, 72 h",[5],-0.55 GR
same,"GRmax, 72 h",[6],-0.39 GR
same,"GRmax, 72 h",[7],-0.492 GR
same,"GRmax, 72 h",[8],0.0471 GR
same,"GRmax, 72 h",[9],-0.282 GR
same,"GRmax, 72 h",[10],-0.42 GR
same,"GRmax, 72 h",[11],-0.561 GR
same,"GRmax, 72 h",[12],-0.0276 GR
same,"GRmax, 72 h",[13],0.247 GR
CNC(=O)c1cccc(-c2ccc3c(N4CCOC[C@@H]4C)nc(N4CCOC[C@@H]4C)nc3n2)c1 [AZD2014] (max 10 µM),"GRmax, 72 h",[1],0.182 GR
same,"GRmax, 72 h",[2],-0.421 GR
same,"GRmax, 72 h",[3],0.147 GR
same,"GRmax, 72 h",[4],0.0453 GR
same,"GRmax, 72 h",[5],0.114 GR
same,"GRmax, 72 h",[6],-0.21 GR
same,"GRmax, 72 h",[7],0.195 GR
same,"GRmax, 72 h",[8],0.0847 GR
same,"GRmax, 72 h",[9],0.241 GR
same,"GRmax, 72 h",[10],-0.164 GR
same,"GRmax, 72 h",[11],-0.0488 GR
same,"GRmax, 72 h",[12],-0.12 GR
same,"GRmax, 72 h",[13],-0.0477 GR
NC1(C(=O)N[C@@H](CCO)c2ccc(Cl)cc2)CCN(c2nc[nH]c3nccc2-3)CC1 [AZD5363] (max 10 µM),"GRmax, 72 h",[1],0.769 GR
same,"GRmax, 72 h",[2],0.0474 GR
same,"GRmax, 72 h",[3],0.617 GR
same,"GRmax, 72 h",[4],-0.292 GR
same,"GRmax, 72 h",[5],0.592 GR
same,"GRmax, 72 h",[6],-0.441 GR
same,"GRmax, 72 h",[7],0.731 GR
same,"GRmax, 72 h",[8],0.773 GR
same,"GRmax, 72 h",[9],1.05 GR
same,"GRmax, 72 h",[10],-0.798 GR
same,"GRmax, 72 h",[11],0.138 GR
same,"GRmax, 72 h",[12],0.536 GR
same,"GRmax, 72 h",[13],0.686 GR
C[C@@H]1COCCN1c1cc(C2([S@](C)(=N)=O)CC2)nc(-c2cc[nH]c3nccc2-3)n1 [AZD6738] (max 10 µM),"GRmax, 72 h",[1],-0.0627 GR
same,"GRmax, 72 h",[2],0.267 GR
same,"GRmax, 72 h",[3],-0.0672 GR
same,"GRmax, 72 h",[4],-0.532 GR
same,"GRmax, 72 h",[5],0.144 GR
same,"GRmax, 72 h",[6],0.742 GR
same,"GRmax, 72 h",[7],-0.271 GR
same,"GRmax, 72 h",[8],0.518 GR
same,"GRmax, 72 h",[9],0.354 GR
same,"GRmax, 72 h",[10],0.429 GR
same,"GRmax, 72 h",[11],-0.0886 GR
same,"GRmax, 72 h",[12],0.367 GR
same,"GRmax, 72 h",[13],0.598 GR
NC(=O)Nc1cc(-c2cccc(F)c2)sc1C(=O)N[C@H]1CCCNC1 [AZD7762] (max 10 µM),"GRmax, 72 h",[1],-0.369 GR
same,"GRmax, 72 h",[2],0.0014 GR
same,"GRmax, 72 h",[3],-0.211 GR
same,"GRmax, 72 h",[4],-0.7 GR
same,"GRmax, 72 h",[5],-0.322 GR
same,"GRmax, 72 h",[6],-0.319 GR
same,"GRmax, 72 h",[7],-0.334 GR
same,"GRmax, 72 h",[8],-0.513 GR
same,"GRmax, 72 h",[9],-0.463 GR
same,"GRmax, 72 h",[10],-0.308 GR
same,"GRmax, 72 h",[11],-0.451 GR
same,"GRmax, 72 h",[12],-0.0826 GR
same,"GRmax, 72 h",[13],-0.0705 GR
Cc1nc(NC(=O)N2CCC[C@H]2C(N)=O)sc1-c1ccnc(C(C)(C)C(F)(F)F)c1 [Alpelisib/BYL719] (max 10 µM),"GRmax, 72 h",[1],0.48 GR
same,"GRmax, 72 h",[2],-0.809 GR
same,"GRmax, 72 h",[3],0.825 GR
same,"GRmax, 72 h",[4],0.0981 GR
same,"GRmax, 72 h",[5],0.293 GR
same,"GRmax, 72 h",[6],0.716 GR
same,"GRmax, 72 h",[7],0.68 GR
same,"GRmax, 72 h",[8],0.431 GR
same,"GRmax, 72 h",[9],0.69 GR
same,"GRmax, 72 h",[10],-0.757 GR
same,"GRmax, 72 h",[11],-0.143 GR
same,"GRmax, 72 h",[12],-0.002 GR
same,"GRmax, 72 h",[13],0.577 GR
